From patent publication US20240254118A1, “PRMT5 INHIBITORS AND USES THEREOF” (Gilead Sciences, Inc., priority 2022, published 2024)

How the values were obtained:
[1] = test system: SDMA signal (PRMT5 inhibition) in HCT116 MTAP-deleted cells; experiment: Symmetric di-methyl arginine image-based high content screen assay (SDMA assay), HCT116 MTAP-deleted; format: cell-based; conditions: SDMA assay; for EC50: Homo sapiens, HCT-116, 72 h, 3 days of treatment, cell line not given, taken as HCT116 MTAP-deleted, read-out: EC50 (SDMA assay); for EC50 selectivity (SDMA assay): taken as HCT116 WT versus MTAP-deleted
Method in brief: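 HCT116 MTAP-deleted cells treated with compound until Day 3, then formalin-fixed, permeabilized and immunostained for SDMA, with DAPI nuclear counterstain. Imaged by high-content microscopy; SDMA read-out is mean Alexa 488 intensity per DAPI-defined cell, reflecting PRMT5 inhibition.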

[2] = test system: HCT116 MTAP-deleted cells; experiment: Cell viability assay (CellTiter-Glo, 7 days), HCT116 MTAP-deleted; conditions: Homo sapiens, HCT-116, 168 h

SMILES	EC50 [1] [nM]	EC50 selectivity (SDMA assay) [1]	CC50 [2] [nM]
CC(=O)N(C)N(Cc1nc2cc(C(F)(F)F)ccc2s1)C(=O)c1cc2c(cc1Cl)nc(N)c1cnn(C)c12 [Example 87, N′-Acetyl-4-amino-7-chloro-N′,1-dimethyl-N-[[5-(trifluoromethyl)-1,3-benzothiazol-2-yl]methyl]pyrazolo[4,3-c]quinoline-8-carbohydrazide]	1 to 5	104	100 to 1000
Cn1ncc2c(N)nc3ccc(C(=O)N(Cc4nc5cc(C(F)(F)F)ccc5s4)N4CCOC4=O)cc3c21 [Example 89, 4-Amino-1-methyl-N-(2-oxooxazolidin-3-yl)-N-[[5-(trifluoromethyl)-1,3-benzothiazol-2-yl]methyl]pyrazolo[4,3-c]quinoline-8-carboxamide]	< 1	204	< 100
CCC(=O)N(C)N(Cc1cn2cc(F)ccc2n1)C(=O)c1ccc2nc(N)c3cnn(C)c3c2c1 [Example 91, 4-Amino-N-[(6-fluoroimidazo[1,2-a]pyridin-2-yl)methyl]-N′,1-dimethyl-N′-propanoyl-pyrazolo[4,3-c]quinoline-8-carbohydrazide]	1 to 5	143	< 100
CC(=O)N(C)N(Cc1nc2cc(Cl)ccc2o1)C(=O)c1ccc2nc(N)c3cnn(C)c3c2c1 [Example 97, N′-acetyl-4-amino-N-((5-chlorobenzo[d]oxazol-2-yl)methyl)-N′,1-dimethyl-1H-pyrazolo[4,3-c]quinoline-8-carbohydrazide]	1 to 5	98	< 100
CN(C(=O)C12CC(C1)C2)N(Cc1ccc(C(F)(F)F)cn1)C(=O)c1ccc2nc(N)c3cnn(C)c3c2c1 [Example 101, 4-amino-N′-(bicyclo[1.1.1]pentane-1-carbonyl)-N′,1-dimethyl-N-[[5-(trifluoromethyl)-2-pyridyl]methyl]pyrazolo[4,3-c]quinoline-8-carbohydrazide]	1 to 5	108	< 100
CN(C(=O)C12CC(F)(C1)C2)N(Cc1ccc(C(F)(F)F)cn1)C(=O)c1ccc2nc(N)c3cnn(C)c3c2c1 [Example 102, 4-amino-N′-(3-fluorobicyclo[1.1.1]pentane-1-carbonyl)-N′,1-dimethyl-N-[[5-(trifluoromethyl)-2-pyridyl]methyl]pyrazolo[4,3-c]quinoline-8-carbohydrazide]	1 to 5	252	< 100
CN(C(=O)c1cocn1)N(Cc1ccc(C(F)(F)F)cn1)C(=O)c1ccc2nc(N)c3cnn(C)c3c2c1 [Example 105, N′-(4-amino-1-methyl-1H-pyrazolo[4,3-c]quinoline-8-carbonyl)-N-methyl-N′-((5-(trifluoromethyl)pyridin-2-yl)methyl)oxazole-4-carbohydrazide]	< 1	15	< 100
CN(C(=O)c1cscn1)N(Cc1ccc(C(F)(F)F)cn1)C(=O)c1ccc2nc(N)c3cnn(C)c3c2c1 [Example 106, N′-(4-amino-1-methyl-1H-pyrazolo[4,3-c]quinoline-8-carbonyl)-N-methyl-N′-((5-(trifluoromethyl)pyridin-2-yl)methyl)thiazole-4-carbohydrazide]	< 1	16	< 100
CN(C(=O)OCC(F)(F)F)N(Cc1ccc(C(F)(F)F)cn1)C(=O)c1ccc2nc(N)c3cnn(C)c3c2c1 [Example 109, 2,2,2-trifluoroethyl N-[(4-amino-1-methyl-pyrazolo[4,3-c]quinoline-8-carbonyl)-[[5-(trifluoromethyl)-2-pyridyl]methyl]amino]-N-methyl-carbamate]	< 1	12	< 100
CN(C(=O)OCC(F)F)N(Cc1ccc(C(F)(F)F)cn1)C(=O)c1ccc2nc(N)c3cnn(C)c3c2c1 [Example 110, 2,2-difluoroethyl N-[(4-amino-1-methyl-pyrazolo[4,3-c]quinoline-8-carbonyl)-[[5-(trifluoromethyl)-2-pyridyl]methyl]amino]-N-methyl-carbamate]	< 1	11	< 100

Now from value to molecule, other results behind:

EC50 [1] [nM]	EC50 selectivity (SDMA assay) [1]	SMILES	CC50 [2] [nM]
> 5	221	Cn1ncc2c(N)nc3ccc(C(=O)N(Cc4cn5cc(C#N)ccc5n4)N4CCCC4=O)cc3c21 [Example 88, 4-Amino-N-[(6-cyanoimidazo[1,2-a]pyridin-2-yl)methyl]-1-methyl-N-(2-oxopyrrolidin-1-yl)pyrazolo[4,3-c]quinoline-8-carboxamide]	100 to 1000
1 to 5	53	Cn1ncc2c(N)nc3ccc(C(=O)N(Cc4cn5cc(F)ccc5n4)N4CCCCC4=O)cc3c21 [Example 90, 4-Amino-N-[(6-fluoroimidazo[1,2-a]pyridin-2-yl)methyl]-1-methyl-N-(2-oxo-1-piperidyl)pyrazolo[4,3-c]quinoline-8-carboxamide]	< 100
< 1	257	CC(=O)N(C)N(Cc1nc2cc(F)ccc2s1)C(=O)c1ccc2nc(N)c3cnn(C)c3c2c1 [Example 92, N′-Acetyl-4-amino-N-[(5-fluoro-1,3-benzothiazol-2-yl)methyl]-N′,1-dimethyl-pyrazolo[4,3-c]quinoline-8-carbohydrazide]	< 100
< 1	226	Cn1ncc2c(N)nc3ccc(C(=O)N(Cc4nc5cc(Cl)ccc5s4)N4CCCCC4=O)cc3c21 [Example 93, 4-amino-N-[(5-chloro-1,3-benzothiazol-2-yl)methyl]-1-methyl-N-(2-oxo-1-piperidyl)pyrazolo[4,3-c]quinoline-8-carboxamide]	< 100
< 1	133	Cn1ncc2c(N)nc3ccc(C(=O)N(Cc4cc5ccccn5n4)N4CCCCC4=O)cc3c21 [Example 94, 4-amino-1-methyl-N-(2-oxo-1-piperidyl)-N-(pyrazolo[1,5-a]pyridin-2-ylmethyl)pyrazolo[4,3-c]quinoline-8-carboxamide]	< 100
< 1	205	Cn1ncc2c(N)nc3ccc(C(=O)N(Cc4ccc5nsnc5c4)N4CCCC4=O)cc3c21 [Example 95, 4-amino-N-(2,1,3-benzothiadiazol-5-ylmethyl)-1-methyl-N-(2-oxopyrrolidin-1-yl)pyrazolo[4,3-c]quinoline-8-carboxamide]	< 100
1 to 5	290	CC(=O)N(C)N(Cc1ccc2nsnc2c1)C(=O)c1ccc2nc(N)c3cnn(C)c3c2c1 [Example 96, N′-acetyl-4-amino-N-(2,1,3-benzothiadiazol-5-ylmethyl)-N′,1-dimethyl-pyrazolo[4,3-c]quinoline-8-carbohydrazide]	< 100
< 1	120	CC(=O)N(C)N(Cc1ccc(C2CC2)cc1)C(=O)c1ccc2nc(N)c3cnn(C)c3c2c1 [Example 98, N′-acetyl-4-amino-N-(4-cyclopropylbenzyl)-N′,1-dimethyl-1H-pyrazolo[4,3-c]quinoline-8-carbohydrazide]	< 100
1 to 5	269	CN(C(=O)C1CC(F)(F)C1)N(Cc1ccc(C(F)(F)F)cn1)C(=O)c1ccc2nc(N)c3cnn(C)c3c2c1 [Example 99, 4-amino-N′-(3,3-difluorocyclobutane-1-carbonyl)-N′,1-dimethyl-N-((5-(trifluoromethyl)pyridin-2-yl)methyl)-1H-pyrazolo[4,3-c]quinoline-8-carbohydrazide]	< 100
< 1	7	CN(C(=O)c1ncco1)N(Cc1ccc(C(F)(F)F)cn1)C(=O)c1ccc2nc(N)c3cnn(C)c3c2c1 [Example 100, N′-(4-amino-1-methyl-1H-pyrazolo[4,3-c]quinoline-8-carbonyl)-N-methyl-N′-((5-(trifluoromethyl)pyridin-2-yl)methyl)oxazole-2-carbohydrazide]	< 100
> 5	<500	CC(=O)N1CC(C(=O)N(C)N(Cc2ccc(C(F)(F)F)cn2)C(=O)c2ccc3nc(N)c4cnn(C)c4c3c2)C1 [Example 103, N′-(1-acetylazetidine-3-carbonyl)-4-amino-N′,1-dimethyl-N-[[5-(trifluoromethyl)-2-pyridyl]methyl]pyrazolo[4,3-c]quinoline-8-carbohydrazide]	> 1000
1 to 5	173	CN(C(=O)C1CCC1)N(Cc1ccc(C(F)(F)F)nn1)C(=O)c1ccc2nc(N)c3cnn(C)c3c2c1 [Example 104, 4-amino-N′-(cyclobutanecarbonyl)-N′,1-dimethyl-N-((6-(trifluoromethyl)pyridazin-3-yl)methyl)-1H-pyrazolo[4,3-c]quinoline-8-carbohydrazide]	< 100
< 1	163	CC(=O)N(N(Cc1ccc(C(F)(F)F)cn1)C(=O)c1ccc2nc(N)c3cnn(C)c3c2c1)C12CC(C1)C2 [Example 107, N′-acetyl-4-amino-N′-(1-bicyclo[1.1.1]pentanyl)-1-methyl-N-[[5-(trifluoromethyl)-2-pyridyl]methyl]pyrazolo[4,3-c]quinoline-8-carbohydrazide]	< 100
< 1	70	CN(C(=O)C1CCC1)N(Cc1ccc(C(F)(F)F)cn1)C(=O)c1ccc2nc(N)c3cnn(C)c3c2c1 [Example 108, 4-amino-N′-(cyclobutanecarbonyl)-N′,1-dimethyl-N-[[5-(trifluoromethyl)-2-pyridyl]methyl]pyrazolo[4,3-c]quinoline-8-carbohydrazide]	< 100
